Data on two molecules can be found in patent US6015577A, “Pharmaceutical compositions containing dipyridamole or mopidamol and acetylsalicylic acid or the physiologically acceptable salts thereof, processes for preparing them and their use in treating clot formation” (Thomae GmbH; Dr. Karl, priority 1986, dated 2000).

SMILES strings stand for the structures.

The test has as its system clot formation in vessels of the mesenterium. Put plainly: electrically induced clot formation in mesenteric vein, clot size monitored by intravital microscope. It is filed as in vivo, rat. The conditions noted are these: 2.5 mg/kg acetylsalicylic acid or 5 mg/kg dipyridamole p.o. alone; FIGS. 5 and 6.

Method: The antithrombotic activity achieved with a simultaneous oral administration, according to the invention, of 5 mg/kg of dipyridamole and 0.05 mg/kg of acetylsalicylic acid (weight ratio of dipyridamole to acetylsalicylic acid=100) and, by comparison, during sequential oral administration (according to European Application No. 85 108 761.9) of 5 mg/kg of dipyridamole and 5 mg/kg of acetylsalicylic acid to rats (FW 49) with a body weight of from 60 to 80 g before the start of the experiment was investigated by applying a clotting stimulus to vessels of the mesenterium and by monitoring the size of the clots over a period of time. Groups of 5 animals were used. […] An interval of 1 hour was left between the simultaneous oral administration of the substances according to the invention and the application of the clot or the actual carrying out of the measurements. […]
Using an intravital microscope to monitor the process, a platinum electrode was placed on an outer blood vessel wall of the mesenterium. […] The size of the clot is measured at 10 second intervals and later at 30 second intervals over a period of up to 20 minutes after the stimulation of the blood vessel and is given as the size of the clot (at right angles to the blood vessel wall) as a percentage of the internal diameter of the blood vessel.

In the case of `CC(=O)Oc1ccccc1C(=O)O` [Acetylsalicylic acid, acetylsalicylic acid], the “reduction in the clot size, single substance” value is reported as “do not bring about any significant reduction in the clot size”.
In the case of `OCCN(CCO)c1nc(N2CCCCC2)c2nc(N(CCO)CCO)nc(N3CCCCC3)c2n1` [Dipyridamole, 2,6-bis-(diethanolamino)-4,8-dipiperidino-(5,4-d)-pyrimidine], the “reduction in the clot size, single substance” value was “do not bring about any significant reduction in the clot size”.
